In US20170369529A1, “CELL PENETRATING PEPTIDES” (Hoffmann-La Roche Inc., priority 2014, published 2017):
Positions of bridges follow the written chain, without caps; N, C: chain ends. Non-standard residues stand in square brackets, D forms with d. Nle = CCCC[C@H](N)C(=O)O; AEEA = NCCOCCOCC(=O)O; Fluo = fluorescein

Experiments:
Type in all cases: cell-based
[1] = tested on: Jurkat; test: Cell penetration (cellular uptake by confocal microscopy) in Jurkat cells; details: t 2 h, 2 μM CPP, no fetal calf serum, 37° C., fluorescein fluorescence
Experimental: (§1) Methods and Procedures: Cells were plated onto μ-slide 8 well chambered coverslips (IBIDI) with ibidi standard-bottom and cultured overnight. Peptide stocks were prepared in MillQ and were diluted in cell growth media for cellular uptake studies. Cells were carefully washed with culture medium without fetal calf serum, incubated with 2 μM CPP concentration in absence of fetal calf serum and analyzed by confocal microscopy regarding uptake efficiency and localization over 2 h at 37° C. Finally, trypan blue (0.4% end concentration) was administered to quench cell surface fluorescence followed by an endpoint imaging step. Plates were imaged with an excitation at 488 nm and detection of fluorescence over 500-550 nm (fluorescein) using a TCS SP5 confocal microscope (Leica 174 Microsystems, Mannheim, Germany) equipped with an HCX PL APO 175 63×N.A. 1.2 water immersion lens and a temperature-controlled microscope stage.

[2] = tested on: HEK293T cells; test: Cell penetration (cellular uptake by confocal microscopy) in HEK293T cells; details: 2 μM CPP; for cell penetration, HEK293T (t2 h): t 2 h, no fetal calf serum, 37° C., fluorescein fluorescence
Experimental: (§2) The peptides of the invention were tested for cell penetration in HeLa and HEK293T cell lines.
(§3) Materials: The HeLa (DSMZ) and HEK293T cells were maintained in growth media and then passaged every 2-3 days. Growth media for HeLa cells was RPMI 1640, 10% fetal calf serum, MEM-non-essential amino acids, sodium pyruvate and L-glutamine (GIBCO). Growth media for HEK293T DMEM was supplemented with 10% fetal calf serum, MEM-non-essential amino acids, sodium pyruvate and glutamine (all GIBCO).
as §1

[3] = tested on: HeLa cells; test: Cell penetration (cellular uptake by confocal microscopy) in HeLa cells; details: 2 μM CPP; for penetration of HeLa cells (in words) / localization of fluorescence in HeLa cells: confocal microscopy; for penetration of HeLa cells (in words): intracellular signal; for cell penetration, HeLa(t2 h): t 2 h
Experimental: as §2, §3, §1

[4] = no fetal calf serum, 37° C., fluorescein fluorescence

Substance | cell penetration, Jurkat (t2 h) [1] | cell penetration, HEK293T (t2 h) [2] | penetration of HeLa cells (in words) [3] | cell penetration, HeLa(t2 h) [3, 4] | localization of fluorescence in HeLa cells [3] | cell penetration, HeLa (t30 min) ([3]; t 30 min, no fetal calf serum, 37° C., fluorescein fluorescence) | localization of fluorescence in HEK293T cells ([2]; confocal microscopy)
Fluo-(D-Met)-Ile-(D-Ile)-Leu-Ile-Ile-Gly-Ser-Thr-Ser-Arg-Asp-His-Nle-Val-Leu-His-Glu-Tyr-Val-Asn-Ala-Ala-Gly-Ile-Thr-Ado-NH2 (Fluo-[dM]I[dI]LIIGSTSRDH[Nle]VLHEYVNAAGIT-{AEEA-NH2}) [Example 5] | 0.18 | 0.5 | low intracellular signals | 0.22 |  |  | 
Fluo-Met-Ile-Ile-Leu-Ile-Ile-Gly-Ser-Thr-Ser-Arg-Asp-His-Met-Val-Leu-His-Glu-Tyr-Val-Asn-Ala-Ala-Gly-Ile-Thr-NH2 (fluorescein-MIILIIGSTSRDHMVLHEYVNAAGIT-NH2) [Example 1] |  |  | high | 0.11 | localized in endosomes and cytosol | 0.13 | 
Fluo-Met-Ile-Ile-Leu-Ile-Ile-Met-Gly-Val-Ala-Asp-Leu-Ile-Lys-Lys-Phe-Glu-Ser-Ile-Ser-Lys-Glu-Glu-NH2 [Example 6] | 0.44 | 0.08 | low intracellular signals | 0.14 |  |  | 
Fluo-Nle-Ile-Ile-Leu-Ile-Ile-Gly-Ser-Thr-Ser-Arg-Asp-His-Nle-Val-Leu-His-Glu-Tyr-Val-Asn-Ala-Ala-Gly-Ile-Thr-Ado-NH2 (Fluo-[Nle]IILIIGSTSRDH[Nle]VLHEYVNAAGIT-{AEEA-NH2}) [Example 4] | 0.85 | 0.16 |  | 0.12 |  |  | 
Fluo-Phe-Ile-cyclo(Asp-Ile-Ile-Ile-Lys)-Ile-Leu-Leu-Ile-Gly-Ser-Thr-Ser-Arg-Asp-His-Nle-Val-Leu-His-Glu-Tyr-Val-Asn-Ala-Ala-Gly-Ile-Thr-Ado-NH2 (Fluo-FIDIIIKILLIGSTSRDH[Nle]VLHEYVNAAGIT-{AEEA-NH2}; lactam 3-7) [Example 7] | 1.35 | 0.28 | high | 0.28 | localized in endosomes |  | pronounced cytosolic and partly endosomal fluorescence
Fluo-cyclo(Lys-Ile-Ile-Ile-Ile-Asp)-Gly-Ser-Thr-Ser-Arg-Asp-His-Nle-Val-Leu-His-Glu-Tyr-Val-Asn-Ala-Ala-Gly-Ile-Thr-Ado-NH2 (Fluo-KIIIIDGSTSRDH[Nle]VLHEYVNAAGIT-{AEEA-NH2}; lactam 1-6) [Example 2] | 0.9 | 0.23 | low intracellular signals | 0.18 |  |  | 
Fluo-cyclo(Lys-Nle-Ile-Ile-Leu-Ile-Ile-Asp)-Gly-Ser-Thr-Ser-Arg-Asp-His-Nle-Val-Leu-His-Glu-Tyr-Val-Asn-Ala-Ala-Gly-Ile-Thr-Ado-NH2 (Fluo-K[Nle]IILIIDGSTSRDH[Nle]VLHEYVNAAGIT-{AEEA-NH2}; lactam 1-8) [Example 3] | 0.77 | 0.35 | low intracellular signals | 0.28 |  |  | 
